# Measurements as given in PMC10696396, “HilE represses the activity of the Salmonella virulence regulator HilD via a mechanism distinct from that of intestinal long-chain fatty acids” (The Journal of Biological Chemistry, 2023).
# Tests used:
# [1] = target: T1, HilD (Salmonella enterica, UniProt P0CL08); experiment: biochemical; set-up: EYFP-HilD (full-length HilD with N-terminal EYFP tag); microscale thermophoresis, fatty acid titrated against EYFP-HilD in presence of Pluronic F-127, MST on-time 1.5 s; conditions: in presence of Pluronic F-127; read-out: Kd ± SD
# [2] = target: T1, HilD; experiment: EMSA with hilA promoter DNA; assay type: biochemical; set-up: HilD
# [3] = target: T1, HilD; experiment: MST; assay type: binding; set-up: EYFP-HilD (full-length HilD with N-terminal EYFP tag); conditions: read-out: Kd ± SD
# [4] = target: T2, HilD (Salmonella enterica, UniProt P0CL08, E102A); experiment: MST; assay type: binding
# T2 construct: HilD point mutant
# T2 sequence (P0CL08 1-309 E102A): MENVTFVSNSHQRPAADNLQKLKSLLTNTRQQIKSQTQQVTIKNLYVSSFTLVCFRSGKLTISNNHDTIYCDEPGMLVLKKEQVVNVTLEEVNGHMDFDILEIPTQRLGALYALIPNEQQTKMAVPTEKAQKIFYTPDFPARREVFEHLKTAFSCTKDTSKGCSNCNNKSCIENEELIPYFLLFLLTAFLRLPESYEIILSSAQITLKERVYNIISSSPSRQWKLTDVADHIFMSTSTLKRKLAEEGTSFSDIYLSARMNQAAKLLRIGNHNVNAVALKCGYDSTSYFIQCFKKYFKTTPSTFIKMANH
# [5] = target: T3, HilD (Salmonella enterica, UniProt P0CL08, E102A/K264A/R267A); experiment: MST; assay type: binding
# T3 construct: HilD triple alanine mutant
# T3 sequence (P0CL08 1-309 E102A/K264A/R267A): T2 sequence (P0CL08 1-309 E102A)
# [6] = target: T4, HilD (Salmonella enterica, UniProt P0CL08, R267A); experiment: MST; assay type: binding
# T4 construct: HilD point mutant
# T4 sequence (P0CL08 1-309 R267A): T2 sequence (P0CL08 1-309 E102A)
# [7] = target: T1, HilD; experiment: MST; supported by HDX-MS, nanoDSF and BS3 cross-linking; assay type: binding; set-up: EYFP-HilD (full-length HilD with N-terminal EYFP tag); conditions: read-out: Kd ± SD
# [8] = target: T5, HilD (Salmonella enterica, UniProt P0CL08, K264A); experiment: MST; assay type: binding
# T5 construct: HilD point mutant
# T5 sequence (P0CL08 1-309 K264A): T2 sequence (P0CL08 1-309 E102A)
# [9] = target: T1, HilD; experiment: MST; supported by nanoDSF melting temperature increase; assay type: binding; set-up: EYFP-HilD (full-length HilD with N-terminal EYFP tag); conditions: read-out: Kd ± SD
smiles,measurement,setting,value
CCCCCCCC/C=C\CCCCCCCC(=O)OC [Methyl Oleate],Kd,[1],739 µM
CCCC/C=C\CCCCCCCC(=O)O [Myristoleic Acid],Kd,[1],567 µM
CCCCCCCC/C=C/CCCCCCCC(=O)O [elaidic acid],EMSA with hilA promoter DNA,[2],Elaidic acid appears to bind to HilD with similar affinity to oleic acid
CCCCCCCC/C=C\CCCCCCCCCCCC(=O)O [erucic acid],Kd,[1],14.7 µM
same,Kd,[3],12.8 ± 3.33 µM
CCCCCCCC/C=C\CCCCCCCC(=O)O [oleic acid],Kd,[4],39 ± 8.26 µM
same,Kd,[5],39.7 ± 7.9 µM
same,Kd,[6],39.4 ± 7.98 µM
same,Kd,[7],15 ± 3.21 µM
same,Kd,[8],27.1 ± 7.08 µM
CCCCCC/C=C\CCCCCCCC(=O)O [palmitoleic acid],Kd,[9],27.6 ± 8.7 µM
